According to patent publication US20030036514A1, “Compositions and methods for the diagnosis and treatment of psychogenic erectile dysfunction” (priority 2001, published 2003):
Where two headings read alike, the source gives them in different places. One block for each compound: values may come before it. dPhe(Cl) = D-phenylalanine carrying a chlorine on the ring; Nle = CCCC[C@H](N)C(=O)O

Tests used:
[1] = system: human male; type: in vivo
Experimental: The peptides described herein were prepared by sterile methods to a final concentration of 10 mg of peptide per ml of physiological salina. In addition to a full dose providing 10 mg of the peptide to the individual, doses of 0.1 to 0.3 ml (providing 1 mg to 3 mg of the peptide to each individual) of this stock material were also injected into volunteers, with a dose of 0.1 to 0.2 ml being the most often used dosage.
A dose of 3.75 mg given to volunteers produced a long lasting erection of 4 to 6 hour duration. […] In some, this discomfort was considerable. […] Accordingly, although dosages of from about 1.0 mg to about 10.0 mg show the desired activity according to the present invention, it is preferred that the lower ranges of dosage which bring about the desired erection without undesirable side effects be used. Accordingly, it is preferred that dosages of about 1.5 mg to 2.5 mg of peptide be provided when the route of administration is subcutaneous or intramuscular. With other routes of administration, this range may require adjustment, however, it is still preferred that the lower range of adjusted effective dosages for the selected route of administration be used.
Another of the peptides according to the present invention (Ac-Nle-Asp-His-D-Phe-Cl-Arg-Trp-Lys-Gly-NH2) induced an erection within 60 minutes following administration at a concentration of 2.5 mg. This erection lasted, intermittently, for up to six hours.

[2] = system: patients; settings: injection, alone or combined with pheniolamine; cited from earlier work
[3] = system: castrated dog; test: Erectile response after injection into the castrated dog; type: in vivo

Compound: Ac-Ser-Tyr-Ser-Nle-Glu-His-D-Phe-Cl-Arg-Trp-Gly-Lys-Pro-Val-NH2 [reference compound]
erectile response ([1]; highest dose administered (about 20 mg), human): did not cause an erectile response

Compound: COc1ccc(Cc2nccc3cc(OC)c(OC)cc23)cc1OC [papaverine]
patients in whom an erection is induced [2]: about 70%

stomach discomfort ([1]; human, in vivo): stomach discomfort was noted
Compound: Ac-Nle-Asp-His-D-Phe-Cl-Arg-Trp-Lys-NH2 [Example II]
erectile response ([3]; castrated dog first primed with testosterone): did so
erectile response ([3]; castrated dog, not primed): caused no erectile response
erectile activity ([1]; 1.25 mg (smallest dose) subcutaneously, human volunteers): generally no erectile activity was noted

Compound: Ac-Nle-Asp-His-D-Phe-Cl-Arg-Trp-Lys-Gly-NH2 ({Ac-Nle-Asp-H2N-dPhe(Cl)}-RWKG-NH2)
time to erection following administration ([1]; 1.25 mg, compared with 2.5 mg, human): took longer to initially occur
duration of erection (sustained intermittently) ([1]; 1.25 mg, human): up to 6 hours
time to erection following administration ([1]; 2.5 mg, human): ≤ 60 min
